{
  "source": "patent US7446199B2",
  "about": "“Compositions useful as inhibitors of protein kinases” (Vertex Pharmaceuticals Incorporated, priority 2003, dated 2008)",
  "type_in_all_cases": "biochemical",
  "key": {"JAK3": {"target": "T1, JAK3 (Homo sapiens, UniProt P52333)", "T1 sequence (P52333 1-1124)": "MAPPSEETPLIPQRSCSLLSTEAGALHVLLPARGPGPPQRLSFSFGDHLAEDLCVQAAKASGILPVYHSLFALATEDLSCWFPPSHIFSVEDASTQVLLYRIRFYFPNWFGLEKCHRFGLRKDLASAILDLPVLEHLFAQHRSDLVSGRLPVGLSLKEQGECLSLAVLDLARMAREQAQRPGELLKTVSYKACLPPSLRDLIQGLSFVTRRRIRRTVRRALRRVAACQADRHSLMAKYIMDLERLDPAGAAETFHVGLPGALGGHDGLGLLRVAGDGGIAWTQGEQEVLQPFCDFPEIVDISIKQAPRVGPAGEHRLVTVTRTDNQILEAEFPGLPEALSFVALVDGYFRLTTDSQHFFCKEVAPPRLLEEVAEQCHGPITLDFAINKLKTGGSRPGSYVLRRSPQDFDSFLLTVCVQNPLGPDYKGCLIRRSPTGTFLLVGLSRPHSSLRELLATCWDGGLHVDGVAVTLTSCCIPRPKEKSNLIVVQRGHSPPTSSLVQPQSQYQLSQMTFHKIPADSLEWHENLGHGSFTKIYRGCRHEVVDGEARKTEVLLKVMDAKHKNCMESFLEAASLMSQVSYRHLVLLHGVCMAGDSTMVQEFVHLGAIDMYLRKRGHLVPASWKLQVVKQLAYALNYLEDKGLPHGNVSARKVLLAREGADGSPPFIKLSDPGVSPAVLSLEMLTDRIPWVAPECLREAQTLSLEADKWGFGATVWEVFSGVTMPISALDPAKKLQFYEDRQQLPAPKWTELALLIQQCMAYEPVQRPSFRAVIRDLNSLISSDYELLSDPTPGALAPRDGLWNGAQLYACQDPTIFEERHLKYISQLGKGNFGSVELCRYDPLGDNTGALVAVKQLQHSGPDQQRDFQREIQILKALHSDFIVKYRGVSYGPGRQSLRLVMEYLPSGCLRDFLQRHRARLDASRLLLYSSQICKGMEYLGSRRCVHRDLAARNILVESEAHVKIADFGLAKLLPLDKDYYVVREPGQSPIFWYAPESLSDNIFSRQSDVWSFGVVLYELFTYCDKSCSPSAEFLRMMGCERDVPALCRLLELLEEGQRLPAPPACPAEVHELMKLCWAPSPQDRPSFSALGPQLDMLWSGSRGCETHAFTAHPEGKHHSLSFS", "test": "JAK3 inhibition assay (ELISA, Poly (Glu, Ala, Tyr) coated plates)", "conditions": "2 mM ATP, 60 minutes at 30° C.", "outline": "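ELISA on Poly(Glu,Ala,Tyr) 6:3:1-coated plates with 2 mM ATP and 5 mM MgCl2. JAK enzyme started the reaction, run 60 min at 30° C. Phosphotyrosine was detected with HRP-conjugated 4G10 antibody and TMB, read at 450 nm, and IC50 was derived from optical densities.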"}, "KDR": {"target": "KDR (Homo sapiens, UniProt P35968)", "sequence (P35968 20-1356)": "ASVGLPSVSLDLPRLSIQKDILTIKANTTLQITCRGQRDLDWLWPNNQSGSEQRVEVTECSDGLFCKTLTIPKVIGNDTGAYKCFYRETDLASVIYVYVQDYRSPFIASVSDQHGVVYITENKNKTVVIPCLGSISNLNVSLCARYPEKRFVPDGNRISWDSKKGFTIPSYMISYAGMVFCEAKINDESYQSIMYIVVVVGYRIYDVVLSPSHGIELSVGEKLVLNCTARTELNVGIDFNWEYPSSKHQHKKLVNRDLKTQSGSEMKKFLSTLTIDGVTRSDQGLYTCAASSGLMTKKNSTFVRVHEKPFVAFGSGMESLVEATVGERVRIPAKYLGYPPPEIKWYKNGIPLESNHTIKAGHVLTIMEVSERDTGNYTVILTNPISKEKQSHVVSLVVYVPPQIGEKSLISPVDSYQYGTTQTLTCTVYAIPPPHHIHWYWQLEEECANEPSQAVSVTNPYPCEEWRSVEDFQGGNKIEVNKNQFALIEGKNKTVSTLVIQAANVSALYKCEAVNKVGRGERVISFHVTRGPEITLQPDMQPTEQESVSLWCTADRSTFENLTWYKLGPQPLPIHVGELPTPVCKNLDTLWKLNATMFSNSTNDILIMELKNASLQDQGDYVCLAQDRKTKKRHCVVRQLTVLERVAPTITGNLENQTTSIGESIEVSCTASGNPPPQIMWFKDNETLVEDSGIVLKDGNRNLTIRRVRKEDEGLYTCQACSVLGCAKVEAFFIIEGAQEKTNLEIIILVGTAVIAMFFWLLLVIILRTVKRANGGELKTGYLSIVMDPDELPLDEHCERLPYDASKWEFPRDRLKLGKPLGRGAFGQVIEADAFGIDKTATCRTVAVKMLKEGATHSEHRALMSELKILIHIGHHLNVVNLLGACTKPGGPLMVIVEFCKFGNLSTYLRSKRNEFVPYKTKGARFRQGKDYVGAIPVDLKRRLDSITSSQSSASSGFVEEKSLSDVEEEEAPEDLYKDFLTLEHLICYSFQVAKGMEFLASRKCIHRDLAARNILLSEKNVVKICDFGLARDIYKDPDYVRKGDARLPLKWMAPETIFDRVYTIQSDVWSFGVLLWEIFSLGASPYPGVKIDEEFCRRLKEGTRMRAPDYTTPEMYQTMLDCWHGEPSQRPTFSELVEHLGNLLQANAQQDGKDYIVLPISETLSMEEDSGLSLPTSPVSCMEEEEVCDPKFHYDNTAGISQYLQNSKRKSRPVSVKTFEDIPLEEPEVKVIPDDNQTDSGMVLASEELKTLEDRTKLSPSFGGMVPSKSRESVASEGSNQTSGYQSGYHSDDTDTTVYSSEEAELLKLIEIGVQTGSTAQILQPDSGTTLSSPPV", "test": "KDR enzyme assay, coupled enzyme assay", "conditions": "300 μM ATP, 10 μM poly E4Y, 30 nM KDR, 37° C.", "outline": "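Coupled enzyme (PK/LDH, NADH) assay with 30 nM KDR in 200 mM HEPES 7.5, 10 mM MgCl2, 25 mM NaCl, 1 mM DTT, 1.5% DMSO; 300 μM ATP, 10 μM poly E4Y. Compound at 30 μM final, preincubated ~10 min at 37 °C before ATP start; rates read over 5 min at 37 °C.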"}, "c-KIT": {"target": "T2, c-KIT (Homo sapiens, UniProt P10721)", "T2 construct": "0.02% BSA and 25 nM c-KIT", "T2 sequence (P10721 26-976)": "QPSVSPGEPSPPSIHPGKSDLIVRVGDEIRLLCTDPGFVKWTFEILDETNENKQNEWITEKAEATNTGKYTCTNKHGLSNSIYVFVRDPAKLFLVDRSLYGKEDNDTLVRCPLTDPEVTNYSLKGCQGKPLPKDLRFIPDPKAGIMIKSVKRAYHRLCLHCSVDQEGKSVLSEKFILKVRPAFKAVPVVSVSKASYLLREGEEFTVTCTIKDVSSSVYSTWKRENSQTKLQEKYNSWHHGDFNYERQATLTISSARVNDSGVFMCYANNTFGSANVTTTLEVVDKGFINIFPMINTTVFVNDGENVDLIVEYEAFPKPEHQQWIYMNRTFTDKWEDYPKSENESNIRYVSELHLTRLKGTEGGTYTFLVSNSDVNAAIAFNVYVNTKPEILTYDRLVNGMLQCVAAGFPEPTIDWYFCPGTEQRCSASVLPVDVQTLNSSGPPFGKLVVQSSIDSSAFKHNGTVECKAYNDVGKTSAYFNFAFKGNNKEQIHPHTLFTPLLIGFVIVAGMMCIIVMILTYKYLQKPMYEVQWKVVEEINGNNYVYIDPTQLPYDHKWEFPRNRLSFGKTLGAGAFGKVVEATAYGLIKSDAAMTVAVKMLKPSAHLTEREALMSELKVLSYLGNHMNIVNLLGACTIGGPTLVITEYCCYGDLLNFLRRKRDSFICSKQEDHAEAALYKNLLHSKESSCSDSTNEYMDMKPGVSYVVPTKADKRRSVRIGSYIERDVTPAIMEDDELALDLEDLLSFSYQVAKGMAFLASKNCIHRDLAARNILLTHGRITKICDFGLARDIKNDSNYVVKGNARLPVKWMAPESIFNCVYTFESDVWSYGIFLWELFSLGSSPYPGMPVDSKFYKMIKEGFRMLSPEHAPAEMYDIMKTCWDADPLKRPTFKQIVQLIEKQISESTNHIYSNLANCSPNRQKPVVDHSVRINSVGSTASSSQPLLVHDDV", "test": "Inhibition of c-KIT, radiometric filter-binding assay", "conditions": "700 μM ATP, 0.5 mg/mL pE4Y, room temperature", "outline": "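Radiometric filter-binding: 25 nM c-KIT (enzyme in the Solution 2 mix) with poly(Glu,Tyr) 4:1 substrate at 0.5 mg/mL and [γ-^33P]ATP at 700 μM (both final), in HEPES pH 7.5/MgCl2/NaCl/DTT/BSA with 2.5% DMSO. Incubated 20 min at room temperature, stopped with TCA, and ^33P incorporation counted on filters. 12-point titration, final compound typically 0.01-5 μM; IC50 or Ki from curve fit.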"}},
  "data": [
    {"smiles": "CN1CCN(c2ccc(-c3cnc4[nH]cc(-c5nncn5-c5cccc(F)c5F)c4c3)cc2)CC1", "note": "[Compound 110, 3-[4-(2,3-Difluoro-phenyl)-4H-[1,2,4]triazol-3-yl]-5-[4-(4-methyl-piperazin-1-yl)-phenyl]-1H-pyrrolo[2,3-b]pyridine]", "values": [
      {"measurement": "Ki", "setting": "JAK3", "result": "200 to 1000", "unit": "nM"},
      {"measurement": "Ki", "setting": "KDR", "result": "200 to 1000", "unit": "nM"},
      {"measurement": "Ki", "setting": "c-KIT", "result": "< 200", "unit": "nM"}
    ]},
    {"smiles": "CN1CCN(c2ccc(-c3cnc4[nH]cc(-c5nncn5-c5cccc(F)c5F)c4c3)cn2)CC1", "note": "[Compound 112]", "values": [
      {"measurement": "Ki", "setting": "JAK3", "result": "1000 to 12500", "unit": "nM"},
      {"measurement": "Ki", "setting": "KDR", "result": "200 to 1000", "unit": "nM"},
      {"measurement": "Ki", "setting": "c-KIT", "result": "200 to 1000", "unit": "nM"}
    ]},
    {"smiles": "Fc1cccc(-n2cnnc2-c2c[nH]c3ncc(-c4cccnc4)cc23)c1F", "note": "[Compound 113, 3-[4-(2,3-Difluoro-phenyl)-4H-[1,2,4]triazol-3-yl]-5-pyridin-3-yl-1H-pyrrolo[2,3-b]pyridine]", "values": [
      {"measurement": "Ki", "setting": "JAK3", "result": "1000 to 12500", "unit": "nM"},
      {"measurement": "Ki", "setting": "KDR", "result": "200 to 1000", "unit": "nM"},
      {"measurement": "Ki", "setting": "c-KIT", "result": "200 to 1000", "unit": "nM"}
    ]},
    {"smiles": "Fc1cccc(-n2cnnc2-c2c[nH]c3ncc(-c4ccncc4)cc23)c1F", "note": "[Compound 114, 3-[4-(2,3-Difluoro-phenyl)-4H-[1,2,4]triazol-3-yl]-5-pyridin-4-yl-1H-pyrrolo[2,3-b]pyridine]", "values": [
      {"measurement": "Ki", "setting": "JAK3", "result": "1000 to 12500", "unit": "nM"},
      {"measurement": "Ki", "setting": "KDR", "result": "200 to 1000", "unit": "nM"},
      {"measurement": "Ki", "setting": "c-KIT", "result": "< 200", "unit": "nM"}
    ]},
    {"smiles": "Fc1cccc(-n2cnnc2-c2c[nH]c3ncc(-c4ccc(N5CCC[C@H]5CN5CCCC5)nc4)cc23)c1F", "note": "[Compound 115, 3-[4-(2,3-Difluoro-phenyl)-4H-[1,2,4]triazol-3-yl]-5-[6-(2-pyrrolidin-1-ylmethyl-pyrrolidin-1-yl)-pyridin-3-yl]-1H-pyrrolo[2,3-b]pyridine]", "values": [
      {"measurement": "Ki", "setting": "JAK3", "result": "1000 to 12500", "unit": "nM"},
      {"measurement": "Ki", "setting": "KDR", "result": "1000 to 12500", "unit": "nM"},
      {"measurement": "Ki", "setting": "c-KIT", "result": "200 to 1000", "unit": "nM"}
    ]},
    {"smiles": "OC1CCN(c2ccc(-c3cnc4[nH]cc(-c5nncn5-c5cccc(F)c5F)c4c3)cn2)CC1", "note": "[Compound 116, 5′-{3-[4-(2,3-Difluoro-phenyl)-4H-[1,2,4]triazol-3-yl]-1H-pyrrolo[2,3-b]pyridin-5-yl}-3,4,5,6-tetrahydro-2H-[1,2′]bi-pyridinyl-4-ol]", "values": [
      {"measurement": "Ki", "setting": "JAK3", "result": "200 to 1000", "unit": "nM"},
      {"measurement": "Ki", "setting": "KDR", "result": "200 to 1000", "unit": "nM"},
      {"measurement": "Ki", "setting": "c-KIT", "result": "200 to 1000", "unit": "nM"}
    ]},
    {"smiles": "CN1CCCN(c2ccc(-c3cnc4[nH]cc(-c5nncn5-c5cccc(F)c5F)c4c3)cn2)CC1", "note": "[Compound 117, 3-[4-(2,3-Difluoro-phenyl)-4H-[1,2,4]triazol-3-yl]-5-[6-(4-methyl-[1,4]diazepan-1-yl)-pyridin-3-yl]-1H-pyrrolo [2,3-b]-pyridine]", "values": [
      {"measurement": "Ki", "setting": "JAK3", "result": "1000 to 12500", "unit": "nM"},
      {"measurement": "Ki", "setting": "KDR", "result": "200 to 1000", "unit": "nM"},
      {"measurement": "Ki", "setting": "c-KIT", "result": "200 to 1000", "unit": "nM"}
    ]},
    {"smiles": "Fc1cccc(-n2cnnc2-c2c[nH]c3ncc(-c4ccc(N5CCCC5)nc4)cc23)c1F", "note": "[Compound 118, 3-[4-(2,3-Difluoro-phenyl)-4H-[1,2,4]triazol-3-yl]-5-(6-pyrrolidin-1-yl-pyridin-3-yl)-1H-pyrrolo[2,3-b]pyridine]", "values": [
      {"measurement": "Ki", "setting": "JAK3", "result": "200 to 1000", "unit": "nM"},
      {"measurement": "Ki", "setting": "KDR", "result": "200 to 1000", "unit": "nM"},
      {"measurement": "Ki", "setting": "c-KIT", "result": "200 to 1000", "unit": "nM"}
    ]},
    {"smiles": "CN(C)CCNc1ccc(-c2cnc3[nH]cc(-c4nncn4-c4cccc(F)c4F)c3c2)cn1", "note": "[Compound 119, N′-(5-{3-[4-(2,3-Difluoro-phenyl)-4H-[1,2,4]triazol-3-yl]-1H-pyrrolo[2,3-b]pyridin-5-yl}-pyridin-2-yl)-N,N-dimethyl-ethane-1,2-diamine]", "values": [
      {"measurement": "Ki", "setting": "JAK3", "result": "1000 to 12500", "unit": "nM"},
      {"measurement": "Ki", "setting": "KDR", "result": "200 to 1000", "unit": "nM"},
      {"measurement": "Ki", "setting": "c-KIT", "result": "200 to 1000", "unit": "nM"}
    ]},
    {"smiles": "Cc1noc(-c2c[nH]c3ncc(-c4ccc(N5CCN(C)CC5)cc4)cc23)c1-c1cccc(F)c1F", "note": "[Compound 135, 3-[4-(2,3-Difluoro-phenyl)-3-methyl-isoxazol-5-yl]-5-[4-(4-methyl-piperazin-1-yl)-phenyl]-1H-pyrrolo[2,3-b]pyridine]", "values": [
      {"measurement": "Ki", "setting": "JAK3", "result": "< 200", "unit": "nM"},
      {"measurement": "Ki", "setting": "KDR", "result": "200 to 1000", "unit": "nM"},
      {"measurement": "Ki", "setting": "c-KIT", "result": "< 200", "unit": "nM"}
    ]},
    {"smiles": "Fc1cccc(-c2cnoc2-c2c[nH]c3ncc(C4=CCC(NCc5ccccc5)CC4)cc23)c1F", "note": "(stereo not drawn) [Compound 136, Benzyl-(4-{3-[4-(2,3-difluoro-phenyl)-isoxazol-5-yl]-1H-pyrrolo[2,3-b]pyridin-5-yl}-cyclohex-3-enyl)-amine]", "values": [
      {"measurement": "Ki", "setting": "JAK3", "result": "< 200", "unit": "nM"},
      {"measurement": "Ki", "setting": "KDR", "result": "200 to 1000", "unit": "nM"},
      {"measurement": "Ki", "setting": "c-KIT", "result": "< 200", "unit": "nM"}
    ]},
    {"smiles": "NC1CC=C(c2cnc3[nH]cc(-c4oncc4-c4cccc(F)c4F)c3c2)CC1", "note": "(stereo not drawn) [Compound 137, 4-{3-[4-(2,3-Difluoro-phenyl)-isoxazol-5-yl]-1H-pyrrolo [2,3-b]pyridin-5-yl}-cyclohex-3-enylamine]", "values": [
      {"measurement": "Ki", "setting": "JAK3", "result": "< 200", "unit": "nM"},
      {"measurement": "Ki", "setting": "KDR", "result": "< 200", "unit": "nM"},
      {"measurement": "Ki", "setting": "c-KIT", "result": "< 200", "unit": "nM"}
    ]},
    {"smiles": "CN(C)C1CC=C(c2cnc3[nH]cc(-c4oncc4-c4cccc(F)c4F)c3c2)CC1", "note": "(stereo not drawn) [Compound 138, (4-{3-[4-(2,3-Difluoro-phenyl)-isoxazol-5-yl]-1H-pyrrolo[2,3-b]pyridin-5-yl}-cyclohex-3-enyl)-dimethyl-amine]", "values": [
      {"measurement": "Ki", "setting": "JAK3", "result": "< 200", "unit": "nM"},
      {"measurement": "Ki", "setting": "KDR", "result": "< 200", "unit": "nM"},
      {"measurement": "Ki", "setting": "c-KIT", "result": "< 200", "unit": "nM"}
    ]},
    {"smiles": "Fc1cccc(-c2cnoc2-c2c[nH]c3ncc(C4=CCC(N5CCOCC5)CC4)cc23)c1F", "note": "(stereo not drawn) [Compound 139, 3-[4-(2,3-Difluoro-phenyl)-isoxazol-5-yl]-5-(4-morpholin-4-yl-cyclohex-1-enyl)-1H-pyrrolo[2,3-b]pyridine]", "values": [
      {"measurement": "Ki", "setting": "JAK3", "result": "< 200", "unit": "nM"},
      {"measurement": "Ki", "setting": "KDR", "result": "200 to 1000", "unit": "nM"},
      {"measurement": "Ki", "setting": "c-KIT", "result": "< 200", "unit": "nM"}
    ]},
    {"smiles": "CS(=O)(=O)NC1CC=C(c2cnc3[nH]cc(-c4oncc4-c4cccc(F)c4F)c3c2)CC1", "note": "(stereo not drawn) [Compound 140, N-(4-{3-[4-(2,3-Difluoro-phenyl)-isoxazol-5-yl]-1H-pyrrolo[2,3-b]pyridin-5-yl}-cyclohex-3-enyl)-methanesulfonamide]", "values": [
      {"measurement": "Ki", "setting": "JAK3", "result": "< 200", "unit": "nM"},
      {"measurement": "Ki", "setting": "KDR", "result": "< 200", "unit": "nM"},
      {"measurement": "Ki", "setting": "c-KIT", "result": "< 200", "unit": "nM"}
    ]}
  ]
}
